In patent US20240115726A1, “HYDRAZONE-BASED SAPONIN DERIVATIVES” (priority 2020, published 2024):

Assays:
[1] = test system: HeLa cells; test: Endosomal escape enhancing activity: saponin titrated with fixed non-effective toxin conjugate, cell killing (MTS)
Protocol: (§1) Cell viability was determined by an MTS-assay, performed according to the manufacturer's instruction (CellTiter 96® AQueous One Solution Cell Proliferation Assay, Promega). Briefly, the MTS solution was diluted 20× in DMEM without phenol red (PAN-Biotech GmbH) supplemented with 10% FBS (PAN-Biotech GmbH). The cells were washed once with 200 μL PBS per well, after which 100 μL diluted MTS solution was added per well. The plate was incubated for approximately 20-30 minutes at 37° C. […] For quantification the background signal of ‘medium only’ wells was subtracted from all other wells, before the ratio of untreated/treated cells was calculated, by dividing the background corrected signal of untreated wells over the background corrected signal of the treated wells.

[2] = test system: A431 cells; test: Toxicity of saponin alone, cell viability (MTS); type: cell-based; conditions: Homo sapiens, A-431
Protocol: Cell viability was determined by an MTS-assay, performed according to the manufacturer's instruction (CellTiter 96® AQueous One Solution Cell Proliferation Assay, Promega). Briefly, the MTS solution was diluted 20× in DMEM without phenol red (PAN-Biotech GmbH) supplemented with 10% FBS (PAN-Biotech GmbH). The cells were washed once with 200 μL PBS per well, after which 100 μL diluted MTS solution was added per well. The plate was incubated for approximately 20-30 minutes at 37° C. Subsequently, the optical density at 492 nm was measured on a Thermo Scientific Multiskan FC plate reader (Thermo Scientific). For quantification the background signal of ‘medium only’ wells was subtracted from all other wells, before the ratio of untreated/treated cells was calculated, by dividing the background corrected signal of untreated wells over the background corrected signal of the treated wells.

[3] = test system: Human Red blood cells; test: Hemolysis assay; type: cell-based; conditions: for hemolytic activity, comparison in words: fresh Human Red blood cells, FIG. 5
Protocol: Red blood cells (RBCs) were isolated from a buffy coat using a Ficoll gradient. The obtained RBC pellet (→4-5 ml) was washed 2× with 50 ml DPBS (without Ca^2+/Mg^2+, PAN-Biotech GmbH). Cells were pelleted by centrifugation for 10 min, 800×g at RT. RBC were counted and resuspended at 500,000,000 c/ml in DPBS (without Ca^2+/Mg^2+), based on total cell count. […] For positive lysis control a 0.02% Triton-X100 solution was prepared in DPBS^+/+. Of all compound solutions 135 μl was dispensed/well in a 96 well V-bottom plate. To this 15 μl RBC suspension was added and mixed shortly (10 sec-600 rpm). The plate was incubated 30 min at RT, with gentle agitation. Afterwards the plate was spun for 10 min at 800×g to pellet the RBC and 100-120 μl supernatant was transferred to a standard 96 wp. Subsequently, the OD at 405 nm was measured on a Thermo Scientific Multiskan FC plate reader (Thermo Scientific). For quantification the background signal of ‘DPBS^+/+ only’ wells was subtracted from all other wells before the percentage of hemolysis was calculated in comparison to 0.02% Triton-X100, by dividing the background corrected signal of treated wells over the background corrected signal of the 0.02% Triton-X100 wells (×100).

[4] = test system: HeLa cells; test: Toxicity of saponin alone, cell viability (MTS); type: cell-based; conditions: for toxicity, comparison in words: HeLa and A431 cells, FIG. 4; for IC50: Homo sapiens, HeLa cells, saponin alone
Protocol: Next, toxicity was determined. […] SO1861-EMCH (blocked): the maleimide functional group is conjugated with mercapto-ethanol.

[5] = test system: A431 cells; test: Endosomal escape enhancing activity: saponin titrated with fixed non-effective toxin conjugate, cell killing (MTS)
Protocol: as §1

[6] = Homo sapiens, HeLa, read-out: IC50 nM (Activity; +5 pM EGFdianthin)
[7] = Homo sapiens, A-431, read-out: IC50 nM (Activity; +5 pM EGFdianthin)

CC(=O)OC1C(C)OC(OC2C(C)OC(OC(=O)[C@]34CCC(C)(C)CC3C3=CCC5[C@@]6(C)CC[C@H](OC7OC(C(=O)O)C(O)C(OC8OCC(O)C(O)C8O)C7OC7OC(CO)C(O)C(O)C7O)[C@@](C)(/C=N/NC(=O)CCCCCN7C(=O)C=CC7=O)C6CC[C@@]5(C)[C@]3(C)C[C@H]4O)C(OC3OC(C)C(OC4OCC(O)C(OC5OC(CO)C(O)C(O)C5O)C4O)C(O)C3O)C2O)C(O)C1OC1OCC(O)C(O)C1O (stereo partly drawn) [SO1861-EMCH, reference compound]
IC50 [1, 6]: 4000 nM | IC50 [2]: > 30 µM | hemolytic activity, comparison in words [3]: comparable hemolytic activity

CC(=O)OC1C(C)OC(OC2C(C)OC(OC(=O)[C@]34CCC(C)(C)CC3C3=CCC5[C@@]6(C)CC[C@H](OC7OC(C(=O)O)C(O)C(OC8OCC(O)C(O)C8O)C7OC7OC(CO)C(O)C(O)C7O)CC6[C@@](C)(/C=N/NC(=O)CCOCCOCCOCCOCCN6N=NC7c8ccccc8CN(C(=O)CCC(=O)ON8C(=O)CCC8=O)c8ccccc8C76)C[C@@]5(C)[C@]3(C)C[C@H]4O)C(OC3OC(C)C(OC4OCC(O)C(OC5OC(CO)C(O)C(O)C5O)C4O)C(O)C3O)C2O)C(O)C1OC1OCC(O)C(O)C1O (stereo partly drawn)
toxicity, comparison in words [4]: comparable with the toxicity observed with SO1861-EMCH | IC50 [4]: > 100 µM | IC50 [1, 6]: 4000 nM | IC50 ([1]; read-out: IC50 (activity; +10 pM Cetuximab-saporin), HeLa cells, +10 pM Cetuximab-saporin): 2000 nM | IC50 ([1]; read-out: IC50 (activity; +50 pM Trastuzumab-saporin), HeLa cells, +50 pM Trastuzumab-saporin): 3000 nM | IC50 [5, 7]: 3000 nM | IC50 ([5]; read-out: IC50 (activity; +10 pM Cetuximab-saporin), A431 cells, +10 pM Cetuximab-saporin): 2000 nM | IC50 [2]: > 30 µM | IC50 ([3]; Homo sapiens, Erythrocyte, red blood cells, Table 3): > 1000 µM | hemolytic activity, comparison in words [3]: comparable hemolytic activity

CC(=O)OC1C(C)OC(OC2C(C)OC(OC(=O)[C@]34CCC(C)(C)CC3C3=CCC5[C@@]6(C)CC[C@H](OC7OC(C(=O)O)C(O)C(OC8OCC(O)C(O)C8O)C7OC7OC(CO)C(O)C(O)C7O)[C@@](C)(C=O)C6CC[C@@]5(C)[C@]3(C)C[C@H]4O)C(OC3OC(C)C(OC4OCC(O)C(OC5OC(CO)C(O)C(O)C5O)C4O)C(O)C3O)C2O)C(O)C1OC1OCC(O)C(O)C1O (stereo partly drawn) [SO1861, reference compound]
toxicity, comparison in words [4]: strongest toxicity | IC50 [4]: 9 µM | endosomal escape enhancing activity, comparison in words ([1]; HeLa and A431 cells, with EGFdianthin, Cetuximab-saporin or Trastuzumab-saporin, FIG. 1-3): strongest activity | IC50 [1, 6]: 500 nM | IC50 [5, 7]: 300 nM
